Reference: patent US10259815B2, “Gabaergic ligands and their uses” (UWM Research Foundation, Inc., priority 2015, dated 2019)
Several values for one entry are separate records, joined by “and”; a condition that tells them apart may be missing. Equal values may be shown once. Entries after “also recorded” stand apart in the source; their conditions may differ.

Key:
[1] = target: T1, α3, β3, γ2 GABA A receptor (Homo sapiens, UniProt P18507+P34903); assay: FLIPR functional assay, α3 GABAA receptor subtype in HEK-293 cells; type: cell-based; conditions: α3 Binding EC50, FLIPR membrane potential, potentiation of GABA EC20
T1 construct: host or cells: HEK-293, stably transfected
Source text: The FLIPR functional assay is used to determine the EC50 at the α1 and α3 GABAA receptor subtypes. A high EC50 for the α1 subtype would indicate a low chance of adverse effects, including sedation, ataxia, and muscle relaxation. A low α3 EC50 would indicate potential effectiveness as an anxiolytic, antihyperalgesic, and likely an anticonvulsant. See, for example, Liu et al. (Assay. Drug. Dev. Technol. 2008, 6, 781-6) and Joesch et al. (J. Biomol. Screen. 2008, 13, 218-28).
Compounds tested were synthesized internally and solubilized in DMSO at a 10 mM concentration. GABA was purchase from Sigma (#A2129) and prepared at 100 mM in water.
HEK-293 cells were stably transfected with the α1, β3, γ2 GABA A receptor subunits (GenBank accession numbers NM_000806.3, NM_000814.5, and NM_198904.1, respectively) or α3, β3, γ2 (NM_000808 for α3) where obtained from ChanTest Co. (Catalog # CT6216 and CT6218, respectively).
Cells were cultivated in Dulbeco's Modified Eagle's Medium (DMEM, Sigma D5796) supplemented with 10% Fetal Bovine Serum (FBS, Gibco 16000), 0.5 mg/mL Geneticin (Gibco), 0.04 mg/mL Hygromycin B (Gibco), 0.1 mg/mL Zeocin (Gibco) and 20 mM HEPES (Sigma). Cells were grown at 37° C. in a humidified atmosphere of 5% CO2. In the experiments described here frozen cells were used. For this purpose, cells were gown and maintained under confluency during 2-3 weeks and then frozen down at different cell densities using Recovery™ Cell Culture Freezing Medium (Gibco).
18 hours prior to the experiment, cells were quickly thawed at 37° C. and seeded on Poly-D-Lys 384 plates (Corning 356663) at a density of 25,000 cells/well and in 25 μL of complete cell medium as described above.
Membrane potential changes induced by the flux of ions through the receptor were measured as relative fluorescence units (RFU) using the Fluorometric Imaging Plate Reader (FLIPR Tetra®, Molecular Devices) and the FLIPR Membrane Potential Blue Assay kit (Molecular Devices). Prior to the addition of the compounds the medium was removed and cells were loaded with 20 μL of dye prepared in assay buffer composed of Hank's Balanced Salt Solution (HBSS with Ca^+2 and Mg^+2; Gibco 14025) with 20 mM Hepes. After 1 hour of incubation at room temperature (RT), the plate was placed into the FLIPR instrument and experiments were run adding first 10 μL from the 1st addition plate (compound plate) and after a 3 minutes incubation adding 20 μL of the 2nd addition or agonist plate. The response to this last GABA addition was monitored for another 3 minutes. […]
Data Analysis. The difference between the maximum and the minimum (Max-Min) fluorescence reached during the first addition or read interval and the second read interval were used for data analysis (agonist and potentiation, respectively). […]

[2] = system: Male NIH Swiss mice; assay: Rotorod assay (ataxia); type: in vivo
Procedure: Male NIH Swiss mice (n=10) were dosed i.p. with vehicle (1% carboxymethyl cellulose) or one of the test compounds (10 or 30 mg/kg) 30 minutes prior to being tested on the rotorod. Mice were placed on a rod for two minutes at 4 revolutions per minute. […] Mice that fell twice failed the testing.
The rotorod assay (FIG. 5) is used to determine the ataxic effects, generally stemming from the α1 subtype, that compounds have in test subjects. Mice are trained to run on a slow, rotating cylinder for two minutes, and failure to stay on the rod may be due to ataxia. […] Each set of compounds were tested against a vehicle.
Male NIH Swiss mice (n=10/group) were trained on a rotorod (Ugo Basile 7650) at 4 r.p.m. for two minutes per training session prior to testing. On test day, mice were dosed i.p. with either vehicle (1% carboxymethyl cellulose) or one of the test compounds (10 or 30 mg/kg) 30 minutes prior to testing.

[3] = system: Rats; assay: Food-maintained operant responding (rate response); type: in vivo; conditions: three-assay comparison
Procedure: Food-maintained operant responding (rate response). Rats (n=7) were placed in a chamber consisting of two (one active) levers. Rats were trained to press a lever (left) for a food pellet under a multiple-cycle procedure. […] The active period was set on a FR10 schedule and rats could receive a maximum of 5 food pellets. The cue light was terminated either after 5 minutes or once 5 food pellets were delivered. After each active period (every 20 minutes), rats received the next dose of drug for a duration of 2 hours. Data (rate per minute) was collected using Graphic State 3.03 software and interface (Coulbourn Instruments Inc.)
Drugs. The following drugs were used: HZ166, KRM-II-18B, and KRM-II-81, and were dissolved in a mixture containing 20% Dimethyl sulfoxide (DMSO), 10% Emulphor-620 (Rhodia Inc.), and 70% of 0.9% saline. Flumazenil (purchased from Cayman Chemical Company, MI) was dissolved in a mixture containing 10% ethanol, 40% propylene glycol, and 50% sterile water. Midazolam (Akorn, Inc.) was dissolved in 0.9% saline. Doses were expressed as the weight of the drug in milligrams per kilogram of body weight and drugs were administered intraperitoneally.

T1 sequence (P34903 29-492): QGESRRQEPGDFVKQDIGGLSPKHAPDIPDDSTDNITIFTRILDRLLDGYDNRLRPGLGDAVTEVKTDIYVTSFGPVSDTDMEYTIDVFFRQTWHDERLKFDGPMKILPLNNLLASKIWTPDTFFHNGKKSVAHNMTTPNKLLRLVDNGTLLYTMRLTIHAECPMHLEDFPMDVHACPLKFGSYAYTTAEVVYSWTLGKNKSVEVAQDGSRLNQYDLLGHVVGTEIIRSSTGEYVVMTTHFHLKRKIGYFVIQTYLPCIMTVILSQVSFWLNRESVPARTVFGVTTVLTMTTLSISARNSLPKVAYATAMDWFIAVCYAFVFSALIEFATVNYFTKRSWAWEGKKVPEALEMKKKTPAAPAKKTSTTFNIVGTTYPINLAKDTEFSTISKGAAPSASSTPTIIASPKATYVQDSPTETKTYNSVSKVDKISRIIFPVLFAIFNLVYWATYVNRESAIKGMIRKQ
T1 sequence (P28472 26-473 partner): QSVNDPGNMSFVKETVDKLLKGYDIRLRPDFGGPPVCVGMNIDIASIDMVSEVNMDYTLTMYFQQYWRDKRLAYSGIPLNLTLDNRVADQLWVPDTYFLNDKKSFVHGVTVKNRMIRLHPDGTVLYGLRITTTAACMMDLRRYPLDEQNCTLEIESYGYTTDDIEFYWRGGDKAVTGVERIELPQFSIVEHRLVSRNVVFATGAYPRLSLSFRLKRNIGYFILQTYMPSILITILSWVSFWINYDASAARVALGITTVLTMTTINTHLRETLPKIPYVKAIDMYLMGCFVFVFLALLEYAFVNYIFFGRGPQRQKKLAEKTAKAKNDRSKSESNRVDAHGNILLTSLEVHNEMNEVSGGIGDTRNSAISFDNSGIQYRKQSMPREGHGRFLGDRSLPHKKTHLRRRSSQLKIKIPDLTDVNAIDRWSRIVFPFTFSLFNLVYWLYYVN
T1 sequence (P18507 40-475): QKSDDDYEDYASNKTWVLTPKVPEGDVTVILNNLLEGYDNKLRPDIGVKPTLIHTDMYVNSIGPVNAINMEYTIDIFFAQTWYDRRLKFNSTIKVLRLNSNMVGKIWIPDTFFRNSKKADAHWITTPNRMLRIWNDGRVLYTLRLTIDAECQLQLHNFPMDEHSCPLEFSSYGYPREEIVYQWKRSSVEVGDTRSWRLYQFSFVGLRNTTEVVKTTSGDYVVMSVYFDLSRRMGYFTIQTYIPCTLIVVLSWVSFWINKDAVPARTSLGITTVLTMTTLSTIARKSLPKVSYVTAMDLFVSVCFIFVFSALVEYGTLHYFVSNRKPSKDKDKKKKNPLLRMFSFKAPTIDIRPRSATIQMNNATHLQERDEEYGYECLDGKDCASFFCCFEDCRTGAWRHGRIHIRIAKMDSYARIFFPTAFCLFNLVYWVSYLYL

Structure (SMILES)	EC50 [1]	rotorod performance at 30 mg/kg ([2]; 30 mg/kg i.p., 30 minutes prior, 4 r.p.m., two minutes)	rate-suppressing activity, doses relative to antihyperalgesic doses [3]	ataxic / sedative effects in rotarod assay ([2]; 10 or 30 mg/kg i.p.)
C#Cc1ccc2c(c1)C(c1ccccc1F)=NCc1c(-c3cnco3)ncn1-2 [KRM-II-18B, 5-(8-Ethynyl-6-(2-fluorophenyl)-4H-benzo[f]imidazo[1,5-a][1,4]diazepin-3-yl)oxazole]	0.0112 µM	failed multiple times	much larger doses	
C#Cc1ccc2c(c1)C(c1ccccn1)=NCc1c(-c3cnco3)ncn1-2 [KRM-II-81, 5-(8-Ethynyl-6-(pyridin-2-yl)-4H-benzo[f]imidazo[1,5-a][1,4]diazepin-3-yl)oxazole]	0.97 µM and 0.937 µM		much larger doses	less sedative effects than HZ-166; also recorded: no significant ataxic concerns
